Source: US4622337A, “2,2-dimethyl-3-(2-halovinyl)cyclopropane carboxlic acid ester pesticides” (priority 1972, dated 1986)

What was measured:
[1] = Mammalian toxicity in mice; conditions: mouse, in vivo; oral acute
[2] = Mammalian toxicity in rats; conditions: rat, in vivo
[3] = test system: female flies (houseflies); assay: Synergisability with sesamex, 2 μg per fly pretreatment; type: in vivo, Musca domestica; conditions: for Approx. Synergistic factor: sesamex, 2 μg. per fly
Description: (§1) Female flies were treated on the thorax with a one microliter drop of insecticide dissolved in acetone. Two replicates of 15 flies were used at each dose rate and 6 dose rates were used per compound under test. After treatment, the flies were maintained at a temperature of 20° C.±1° and kill was assessed 24 and 48 hours after treatment. LD50 values were calculated in micrograms of insecticide per fly and relative toxicities were calculated from the inverse ratios of the LD50 values.

[4] = test system: American cockroach, Periplaneta americana L.; assay: Toxicity relative to bioresmethrin against American cockroach; type: in vivo; conditions: for Relative Toxicity (American cockroach): Bioresmethrin = 100
[5] = test system: mustard beetles (Phaedon cochleariae Fab); assay: Relative toxicity to mustard beetles, topical micro drop; type: in vivo; conditions: for Relative Toxicity, Mustard Beetles: 5-benzyl-3-furylmethyl (1R)-trans-chrysanthemate = 1000, inverse ratio of LD50, topical, 48 hours
Description: (§2) The toxicity of these new esters was tested by the procedure described in detail in our above mentioned application and the following results were obtained:
(§3) The insecticidal acitivity of the esters of the invention was assessed against houseflies and mustard beetles using the following techniques:
Acetone solutions of the test compound were applied ventrally to adult mustard beetles using a micro drop applicator. The treated insects were maintained for 48 hours after which time kill is assessed. Two replicates of 40 to 50 mustard beetles were used at each dose level and 3 to 4 dose levels were used for each compound. Again, LD50 values were calculated and relative toxicities were calculated for the inverse ratios of LD50 (see Elliott et al, J. Sci. Food Agric. 20, 561, (1969)).
(§4) Relative toxicities were calculated by comparison with 5-benzyl-3-furylmethyl(1R)-trans-chrysanthemate which is one of the most toxic chrysanthemate esters known to houseflies and mustard beetles, its toxicity being about 24 times that of allethrin to houseflies and 65 times that of allethrin to mustard beetles.

[6] = test system: houseflies (Musca domestica); assay: Relative toxicity to houseflies, topical drop on thorax; type: in vivo; conditions: for Relative Toxicity, Houseflies: 5-benzyl-3-furylmethyl (1R)-trans-chrysanthemate = 1000, inverse ratio of LD50, topical, female flies
Description: as §2, §3
as §1, with “values. (see Sawicki et al, Bulletin of the World Health Organization, 35,893, (1966) and Sawicki et al, Entomologia and Exp. Appl. 10, 253, (1967)).” for “values.”
as §4

female Musca domestica = assay: Topical application of pyrethroids alone and with piperonyl butoxide or Tropital; type: in vivo; conditions: for LD 50 active compound only: alone; for LD50 Active compound + piperonyl butoxide (1:5): with piperonyl butoxide (1:5)
Description: Topical application of pyrethroids alone and in combination with synergist gave the following LD50 results in micrograms with female Musca domestica: […]

[7] = test system: houseflies (M. domestica); assay: Insecticidal activity by spraying in a Kearns and March chamber; type: in vivo, Musca domestica; conditions: for LD50: compound alone, odourless kerosene spray
Description: The insecticidal activity of DP 870 against houseflies was tested by spraying M. domestica in a Kearns and March chamber with a solution of a compound in odourless kerosene, and LD50 values calculated. The activity of DP 870 synergised with piperonylbutoxide was also measured and the results compared with the LD50 value for compound P21H of Example 18.

[8] = test system: Ephestia kuhniella and Venturia canescens; assay: Selective toxicity to Ephestia compared to Venturia (LD50 ratio); type: in vivo; conditions: for Selectivity (ratio of toxicity to Ephestia compared to Venturia): ratio from relative toxicity (LD50)
Description: Experiments to compare the relative toxicity (LD50) of compound P39E with certain related compounds have been carried out towards both Ephestia kuhniella and Venturia canescens so that the relative toxicity to the two species can be calculated. […]

[9] = test system: Boophilus microplus, Biarra strain; assay: Acaricidal activity: inhibition of egg laying of injected engorged female ticks; type: in vivo; conditions: Rhipicephalus microplus, 336 h, 14 days after injection, read-out: % Inhibition (egg laying ability)
Description: Acaricidal activity has been measured by injecting solutions of test compound P39E into engorged female ticks, Boophilus microplus, Biarra strain and the ability of the female to lay eggs 14 days after injection determined. The results are exposed as a percent of inhibition of egg laying ability compared to untreated control ticks.

[10] = test system: female flies (houseflies); assay: Synergisability with Sesamex, 5 micrograms per fly 3 hours before; type: in vivo, Musca domestica
Description: The following results were obtained
By repeating the above synergisability test but pretreating flies instead with 5 micrograms per fly of the synergist Sesamex 3 hours before applying the pyrethroid, the following results were obtained: […]

CC1(C)[C@H](C=C(Cl)Cl)[C@H]1C(=O)OCc1cccc(Oc2ccccc2)c1 (relative stereo) showed an LD50 [1] greater than 300 mg/kg and an LD50 ([2]; po) greater than 300 mg/kg.

In the case of C#CCc1ccc(COC(=O)[C@@H]2[C@@H](C=C(Cl)Cl)C2(C)C)o1 (relative stereo), the LD50 [1] is reported as roughly 300 mg/kg and the LD50 ([2]; po) is reported as 300 mg/kg.

In the case of CC1(C)[C@H](C=C(Cl)Cl)[C@H]1C(=O)OCc1coc(Cc2ccccc2)c1 (relative stereo), the LD50 [1] is reported as 100 mg/kg.

In the case of CC(C)=C[C@@H]1[C@@H](C(=O)OCc2coc(Cc3ccccc3)c2)C1(C)C [Bioresmethrin, 5-benzyl-3-furylmethyl (1R)--trans-chrysanthemate, reference compound], the “Approx. Synergistic factor” value [3] is reported as roughly 9.4, the “LD50 (American cockroach)” value ([4]; in vivo) is reported as 2.5 μg/insect and the LD50 ([2]; iv) is reported as 340 mg/kg. For the same molecule, the LD50 ([2]; po) was greater than 8000 mg/kg, the “toxicity, times that of allethrin, to mustard beetles” value ([5]; relative to allethrin) was roughly 65 times and the “toxicity, times that of allethrin, to houseflies” value ([6]; relative to allethrin) was “about 24 times”.

In the case of CC/C=C\[C@@H]1[C@@H](C(=O)OCc2coc(Cc3ccccc3)c2)C1(C)C [Compound A], the “LD 50 active compound only” value (female Musca domestica) is reported as 0.034 µg, the “LD50 Active compound + piperonyl butoxide (1:5)” value (female Musca domestica) is reported as 0.015 µg and the “LD 50 active compound + synergist” value ([3]; pretreated with 2 μg. per fly sesamex) is reported as 0.00033 μg. per female fly. The “Approx. Synergistic factor” value [3] was roughly 13, the “LD 50 active compound only” value ([3]; untreated flies) was 0.0042 μg. per female fly and the LD50 ([2]; iv) was 120 mg/kg. The LD50 ([2]; po) was 800 to 1000 mg/kg, the “Relative Toxicity, Mustard Beetles” value [5] was 2000 and the “Relative Toxicity, Houseflies” value [6] was 1700.

In the case of CC1(C)C(C=C(Cl)Cl)C1C(=O)OCc1cccc(Oc2ccccc2)c1 (stereo not shown) [Compound P21H], the “LD 50 active compound only” value (female Musca domestica) is reported as 0.031 µg, the “LD50 Active compound + Tropital (1:5)” value (female Musca domestica; with Tropital (1:5)) is reported as 0.019 µg and the “LD50 Active compound + piperonyl butoxide (1:5)” value (female Musca domestica) is reported as 0.018 µg. For the same molecule, the LD50 [7] was 0.022 μg/female, the “Relative Toxicity, Mustard Beetles” value [5] was 740 and the “Relative Toxicity, Houseflies” value [6] was 660.

For CC1(C)[C@H](C(=O)OCc2cccc(Oc3ccccc3)c2)[C@@H]1C=C(Cl)Cl [Compound P29L], the “Selectivity (ratio of toxicity to Ephestia compared to Venturia)” value [8] was 2.3 and the “Relative Toxicity (American cockroach)” value [4] was 2,100.

With CC1(C)[C@H](C=C(Cl)Cl)[C@H]1C(=O)OCc1cccc(Oc2ccccc2)c1 [Compound P29M, 3-Phenoxybenzyl-(1R)--trans-2,2-dimethyl-3-(2,2-dichlorovinyl)cyclopropanecarboxylate] the “Selectivity (ratio of toxicity to Ephestia compared to Venturia)” value [8] was 2.8, the “Relative Toxicity (American cockroach)” value [4] was 800 and the “Relative Toxicity, Houseflies” value [6] was 740.

For CC1(C)[C@H](C(=O)OC(C#N)c2cccc(C(=O)c3ccccc3)c2)[C@@H]1C=C(Br)Br (stereo partly drawn) [Compound P39E, (αRS)-cyano-3-benzoylbenzyl(1R)cis-2,2-dimethyl-3-(2,2-dibromovinyl)-cyclopropane carboxylate], the inhibition at 100 µg/mL ([9]; 0.1 mg/ml) was 0%, the inhibition at 1000 µg/mL ([9]; 1 mg/ml) was 90% and the inhibition at 10000 µg/mL ([9]; 10 mg/ml) was 100%. The selectivity in words ([8]; Ephestia over Venturia) was “very marked and quite unexpected selectivity”, the “Selectivity (ratio of toxicity to Ephestia compared to Venturia)” value [8] was 7.9 and the “Relative Toxicity, Mustard Beetles” value [5] was 2200. The “Relative Toxicity, Houseflies” value [6] was 330.

In the case of CC1(C)[C@H](C=C(F)F)[C@H]1C(=O)OCN1C(=O)C2=C(CCCC2)C1=O [DP 870], the LD50 [7] is reported as 0.09 μg/female and the “LD50, plus piperonyl-butoxide” value ([7]; plus piperonyl butoxide (1:5 w/w)) is reported as 0.04 μg/female.

With CC1(C)C(C=C(Br)Br)C1C(=O)OC(C#N)c1cccc(Oc2ccccc2)c1 [P29B (crystalline isomer), (αS)-cyano-3-phenoxybenzyl(1R)cis-2,2-dimethyl-3-(2,2-dibromovinyl)cyclopropane carboxylate] the “LD50 Active compound (flies pretreated with synergist)” value ([10]; 5 micrograms per fly Sesamex 3 hours before) was 0.00023 µg, the Approx. synergist factor ([10]; Sesamex, 5 micrograms per fly) was roughly 7 and the “LD 50 active compound only” value ([10]; without synergist) was 0.0016 µg. For the same molecule, the “Selectivity (ratio of toxicity to Ephestia compared to Venturia)” value [8] was 3.6, the “Relative Toxicity, Mustard Beetles” value [5] was 14000 and the “Relative Toxicity, Houseflies” value [6] was 23000.
